Tested on: MDA-MB-231 (human breast cancer) cell line
Assay: MTT cell viability assay in MDA-MB-231 cells
Format: cell-based
Conditions: 72 h, MTT; for viability at 10 µM / viability at 25 µM / viability at 50 µM: Homo sapiens, MDA-MB-231, 72 h, read-out: Cell Viability (%) ± SD
Procedure: IC50 values were determined by plotting values of percent cell viability against concentration of each of these compounds. […] The experiments were performed in triplicates, n = 3 and ± SE value was calculated for each data point.
The human breast cancer cell line MDA-MB-231 were cultured in Dulbecco’s Modified Eagle’s Medium (DMEM) (Gibco, St. Louis, USA) supplemented with 10% heat inactivated FBS (Fetal Bovine Serum, Gibco, USA) and 1% penicillin-streptomycin (Gibco Canada) in humidified CO2 incubator at 37 °C. The cells were maintained as a monolayer in 100 mm culture plate. The cells used for each experiment were of less than 8 passage number. Sub culturing of cells was performed every third day, followed by trypsin EDTA treatment.
Cell viability assay was performed as per standard protocols. […] Ltd, India). In brief, this is a homogeneous, colorimetric method for determining the number of viable cells in proliferation, cytotoxicity or chemosensitivity assays. MTT is bio reduced by cells into a formazan product that is soluble in the tissue culture medium. […] The absorbance of the formazan product at 595 nm was measured directly from 96-well assay plates without additional processing using a multimode plate reader (Bio-Rad) (iMark, India), as absorbance is directly proportional to the number of viable cells in culture. The percentage of viable cells in each group is determined with respect to the untreated control cells.

Molecule	viability at 10 µM (MDA-MB-231, 10 µM)	viability at 25 µM (MDA-MB-231, 25 µM)	viability at 50 µM (MDA-MB-231, 50 µM)	Cell Viability (%) ± SD (MDA-MB-231, 10 µM)	Cell Viability (%) ± SD (MDA-MB-231, 25 µM)	Cell Viability (%) ± SD (MDA-MB-231, 50 µM)
OC[C@H]1O[C@@H](Cc2cc(-c3c[nH]c4ccc(Cl)cc34)on2)[C@@H](O)[C@@H](O)[C@@H]1O [Compound 44, (2 S,3 S,4 R,5 S,6 R)-2-((5-(5-chloro-1H-indol-3-yl)isoxazol-3-yl)methyl)-6-(hydroxymethyl) tetrahydro-2H-pyran-3,4,5-triol]	83.9 ± 4.08%	82.9 ± 5.28%	81.7 ± 3.45%			
OC[C@H]1O[C@@H](Cc2cc(-c3c[nH]c4ccc(Br)cc34)on2)[C@@H](O)[C@@H](O)[C@@H]1O [Compound 43, (2 S,3 S,4 R,5 S,6 R)-2-((5-(5-bromo-1H-indol-3-yl)isoxazol-3-yl)methyl)-6-(hydroxymethyl) tetrahydro-2H-pyran-3,4,5-triol]	96.6 ± 3.98%	85.2 ± 2.93%	95.7 ± 3.26%			
OC[C@H]1O[C@@H](CC2=NNC(c3c[nH]c4ccc(Br)cc34)C2)[C@H](O)[C@@H](O)[C@@H]1O (stereo partly drawn) [Compound 23, (2 S,3 R,4 R,5 S,6 R)-2-((5-(5-bromo-1H-indol-3-yl)-4,5-dihydro-1H-pyrazol-3-yl)methyl)-6-(hydroxymethyl)tetrahydro-2H-pyran-3,4,5-triol]	105 ± 11.3%	88.8 ± 2.22%	81.5 ± 5.45%			
O=C(/C=C/c1c[nH]c2ccc([N+](=O)[O-])cc12)C[C@@H]1O[C@H](CO)[C@@H](O)[C@H](O)[C@H]1O [Compound 18, (E)-4-(5-nitro-1H-indol-3-yl)-1-((2S,3R,4R,5S,6R)-3,4,5-trihydroxy-6-(hydroxylmethyl)tetrahydro-2H-pyran-2-yl) but-3-en-2-one]	71.7 ± 28.4%	78.5 ± 6.73%	69.8 ± 20.4%			
O=[N+]([O-])c1ccc2[nH]cc(C3CC(C[C@@H]4O[C@H](CO)[C@@H](O)[C@H](O)[C@@H]4O)=NN3)c2c1 (stereo partly drawn) [Compound 30, (2 S,3 S,4 R,5 S,6 R)-2-((5-(5-nitro-1H-indol-3-yl)-4,5-dihydro-1H-pyrazol-3-yl)methyl)-6-(hydroxymethyl)tetrahydro-2H-pyran-3,4,5-triol]	93.8 ± 5.85%	92.1 ± 8%	88 ± 1.1%			
OC[C@H]1O[C@@H](Cc2cc(-c3c[nH]c4ccc(Cl)cc34)on2)[C@H](O)[C@@H](O)[C@H]1O [Compound 40, (2 S,3 R,4 R,5 R,6 R)-2-((5-(5-chloro-1H-indol-3-yl)isoxazol-3-yl)methyl)-6-(hydroxymethyl) tetrahydro-2H-pyran-3,4,5-triol]	93.7 ± 2.68%	96 ± 1.81%	87.9 ± 4.71%			
O=C(/C=C/c1c[nH]c2ccccc12)C[C@@H]1O[C@H](CO)[C@H](O)[C@H](O)[C@H]1O [Compound 13, (E)-4-(1H-indol-3-yl)-1-((2S,3R,4R,5R,6R)-3,4,5-trihydroxy-6-(hydroxymethyl)tetrahydro-2H-pyran-2-yl)but-3-en-2-one]	97.6 ± 2.25%	94.2 ± 1.96%	84.2 ± 9.22%			
(E)-4-(1H-indol-3-yl)-1-((2S,3S,4R,5S,6R)-3,4,5-trihydroxy-6-(hydroxymethyl) tetrahydro-2H-pyran-2-yl) but-3-en-2-one [Compound 19]				102.51 ± 10.39%	89.20 ± 28.63%	71.48 ± 6.24%
OC[C@H]1O[C@@H](CC2=NNC(c3c[nH]c4ccc(Br)cc34)C2)[C@@H](O)[C@@H](O)[C@@H]1O (stereo partly drawn) [Compound 31, (2 S,3 S,4 R,5 S,6 R)-2-((5-(5-bromo-1H-indol-3-yl)-4,5-dihydro-1H-pyrazol-3-yl)methyl)-6-(hydroxymethyl)tetrahydro-2H-pyran-3,4,5-triol]	91.4 ± 3.62%	90.1 ± 6.77%	87.6 ± 6.27%			
OC[C@H]1O[C@@H](CC2=NNC(c3c[nH]c4ccc(Cl)cc34)C2)[C@H](O)[C@@H](O)[C@@H]1O (stereo partly drawn) [Compound 24, (2 S,3 R,4 R,5 S,6 R)-2-((5-(5-chloro-1H-indol-3-yl)-4,5-dihydro-1H-pyrazol-3-yl)methyl)-6-(hydroxymethyl)tetrahydro-2H-pyran-3,4,5-triol]	82.2 ± 3.5%	77.5 ± 8.96%	77.7 ± 2.56%			

Source: article PMC7170901, “Design and efficient synthesis of pyrazoline and isoxazole bridged indole C-glycoside hybrids as potential anticancer agents” (Scientific Reports, 2020)
